Test results: ChEMBL document CHEMBL1201862, “PubChem BioAssay data set” (2004)
Activity calls are given as the source filed them.

What was measured:
[1] = target: Beta-2 adrenergic receptor (Homo sapiens, UniProt P07550); experiment: beta2AR agonists driving receptor internalization, dose response, cell-based, FAP fluorogen, flow cytometry, cherry pick 1 (AID 588763); type: functional
[2] = system: HEK293; experiment: cells; type: functional, cell-based; conditions: Homo sapiens
[3] = target: T1, Nuclear receptor subfamily 0 group B member 1 (Homo sapiens, UniProt P51843); experiment: Luminescence-based cell-based high throughput dose response assay for inhibitors of the orphan nuclear receptor subfamily 0, group B, member 1 (DAX1; NR0B1). [Related pubchem assays (depositor defined):AID504766, AID504790]; type: functional
T1 sequence (P51843 whole entry): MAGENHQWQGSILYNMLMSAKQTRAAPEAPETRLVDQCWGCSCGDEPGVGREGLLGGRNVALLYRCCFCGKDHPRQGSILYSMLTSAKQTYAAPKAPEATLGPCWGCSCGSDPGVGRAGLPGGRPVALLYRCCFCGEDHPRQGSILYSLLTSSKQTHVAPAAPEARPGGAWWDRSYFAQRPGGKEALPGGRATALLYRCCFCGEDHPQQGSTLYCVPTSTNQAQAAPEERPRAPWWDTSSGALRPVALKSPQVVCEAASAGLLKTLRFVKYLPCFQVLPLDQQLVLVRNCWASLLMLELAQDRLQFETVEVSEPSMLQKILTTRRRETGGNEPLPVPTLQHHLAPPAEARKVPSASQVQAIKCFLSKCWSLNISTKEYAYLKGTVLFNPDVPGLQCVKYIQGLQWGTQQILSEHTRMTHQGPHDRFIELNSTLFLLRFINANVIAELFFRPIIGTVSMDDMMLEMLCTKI

[4] = system: Streptococcus sp. 'group A'; experiment: growth inhibition of control SK(-) GAS strain, dose response, counter-screen for streptokinase expression inhibitor project, luminescence, kanamycin, BacTiterGlo, confirmation (AID 1900); type: functional, organism-based
[5] = target: T2, Streptokinase A (Streptococcus pyogenes serotype M1, UniProt P10520); experiment: S. pyogenes streptokinase expression inhibitors, potency, dose response, plasminogen activation absorbance, OD405 (AID 1914); type: functional, Streptococcus pyogenes M1 GAS;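 note: secreted streptokinase activity via plasminogen activation per viability signal from cell pellet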
T2 sequence (P10520 whole entry): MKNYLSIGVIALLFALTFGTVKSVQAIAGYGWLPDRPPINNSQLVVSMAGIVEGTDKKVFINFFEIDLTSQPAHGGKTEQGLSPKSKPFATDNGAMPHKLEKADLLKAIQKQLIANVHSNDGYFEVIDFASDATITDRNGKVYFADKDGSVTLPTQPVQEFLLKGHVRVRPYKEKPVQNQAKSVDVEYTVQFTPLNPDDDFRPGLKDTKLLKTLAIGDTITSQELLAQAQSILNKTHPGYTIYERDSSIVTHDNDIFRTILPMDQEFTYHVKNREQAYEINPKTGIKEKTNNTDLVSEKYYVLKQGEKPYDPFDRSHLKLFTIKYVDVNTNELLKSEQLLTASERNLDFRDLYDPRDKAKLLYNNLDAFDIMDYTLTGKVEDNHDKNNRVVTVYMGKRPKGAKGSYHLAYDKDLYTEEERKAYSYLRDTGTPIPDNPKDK

[6] = system: Streptococcus; experiment: Group A Streptococcus viability loss, dose response, counter-screen for streptokinase expression inhibitor project, luminescence, BacTiterGlo (AID 1915); type: functional, organism-based;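 note: potency for reduction of bacterial viability or growth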
[7] = target: T3, Replicative DNA helicase DnaB (Mycobacterium tuberculosis, UniProt P9WMR3); experiment: DnaB intein splicing inhibitors, dose response, biochemical, cell-free fluorescence (AID 449749); type: functional
T3 sequence (P9WMR3 whole entry): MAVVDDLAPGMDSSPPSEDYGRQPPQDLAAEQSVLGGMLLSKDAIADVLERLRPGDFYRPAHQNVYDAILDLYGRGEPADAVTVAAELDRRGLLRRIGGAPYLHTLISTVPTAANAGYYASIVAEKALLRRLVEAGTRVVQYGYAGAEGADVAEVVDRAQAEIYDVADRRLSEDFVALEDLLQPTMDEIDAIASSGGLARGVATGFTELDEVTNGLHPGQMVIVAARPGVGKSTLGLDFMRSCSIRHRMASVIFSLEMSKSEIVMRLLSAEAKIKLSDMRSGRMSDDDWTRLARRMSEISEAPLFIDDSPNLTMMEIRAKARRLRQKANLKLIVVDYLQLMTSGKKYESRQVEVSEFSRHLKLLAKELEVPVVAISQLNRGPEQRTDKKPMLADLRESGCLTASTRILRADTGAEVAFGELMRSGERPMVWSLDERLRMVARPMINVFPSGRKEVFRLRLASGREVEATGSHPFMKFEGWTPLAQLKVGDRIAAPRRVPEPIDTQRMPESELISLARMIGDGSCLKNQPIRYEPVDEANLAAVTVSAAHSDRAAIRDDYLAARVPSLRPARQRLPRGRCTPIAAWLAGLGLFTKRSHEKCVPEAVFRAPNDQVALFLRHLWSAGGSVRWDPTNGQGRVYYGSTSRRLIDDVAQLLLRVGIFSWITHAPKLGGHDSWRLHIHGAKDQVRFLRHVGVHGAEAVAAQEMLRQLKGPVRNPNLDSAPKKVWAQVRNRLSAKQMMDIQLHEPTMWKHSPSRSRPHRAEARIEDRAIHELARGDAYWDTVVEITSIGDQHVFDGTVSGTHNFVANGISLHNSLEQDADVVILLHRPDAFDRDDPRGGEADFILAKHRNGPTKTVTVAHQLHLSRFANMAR

[8] = system: Vero; experiment: Vero cell cytotoxicity, cytotoxicity control for flavivirus capping enzyme inhibitors (AID 588742); type: functional; conditions: Chlorocebus sabaeus
[9] = target: Apoptotic protease-activating factor 1 (Homo sapiens, UniProt O14727); type: functional
[10] = target: T4, Protein RecA (Mycobacterium tuberculosis, UniProt P9WHJ3); experiment: Fluorescence Cell-Free Homogeneous Dose Retest to Identify Inhibitors of RecA-Intein Splicing Activity. [Related pubchem assays (depositor defined):AID2097, AID2223, AID489010, AID492950]; type: functional
T4 sequence (P9WHJ3 whole entry): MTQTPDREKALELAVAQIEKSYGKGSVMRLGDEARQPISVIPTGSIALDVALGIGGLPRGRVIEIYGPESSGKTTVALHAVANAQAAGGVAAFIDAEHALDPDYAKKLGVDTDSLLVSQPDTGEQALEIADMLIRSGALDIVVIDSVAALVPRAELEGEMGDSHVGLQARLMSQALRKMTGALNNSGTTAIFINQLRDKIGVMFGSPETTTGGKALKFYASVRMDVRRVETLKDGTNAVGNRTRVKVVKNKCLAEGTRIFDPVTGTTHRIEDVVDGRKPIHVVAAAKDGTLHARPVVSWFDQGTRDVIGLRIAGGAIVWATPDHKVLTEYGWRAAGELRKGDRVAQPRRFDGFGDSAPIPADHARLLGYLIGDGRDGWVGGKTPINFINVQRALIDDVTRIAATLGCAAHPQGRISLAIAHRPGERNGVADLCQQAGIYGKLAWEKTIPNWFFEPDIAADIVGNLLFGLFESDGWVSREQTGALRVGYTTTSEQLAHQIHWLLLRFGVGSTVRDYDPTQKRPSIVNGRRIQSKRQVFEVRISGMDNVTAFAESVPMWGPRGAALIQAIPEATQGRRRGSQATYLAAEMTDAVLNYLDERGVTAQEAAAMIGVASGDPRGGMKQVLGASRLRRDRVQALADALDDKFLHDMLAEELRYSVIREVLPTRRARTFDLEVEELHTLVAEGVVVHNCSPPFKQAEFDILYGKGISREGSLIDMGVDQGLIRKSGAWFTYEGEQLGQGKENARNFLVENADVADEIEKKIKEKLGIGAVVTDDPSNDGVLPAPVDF

[11] = target: T5, Mitochondrial peptide methionine sulfoxide reductase (Bos taurus, UniProt P54149); type: functional;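 note: absorbance read-out, biochemical high-throughput dose-response screen for MsrA inhibitors, confirmatory; recombinant bovine MsrA coupled to E. coli TrxB with NADPH and selenocystamine; potency is for inhibitors of MsrA activity on DMSO substrate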
T5 sequence (P54149 whole entry): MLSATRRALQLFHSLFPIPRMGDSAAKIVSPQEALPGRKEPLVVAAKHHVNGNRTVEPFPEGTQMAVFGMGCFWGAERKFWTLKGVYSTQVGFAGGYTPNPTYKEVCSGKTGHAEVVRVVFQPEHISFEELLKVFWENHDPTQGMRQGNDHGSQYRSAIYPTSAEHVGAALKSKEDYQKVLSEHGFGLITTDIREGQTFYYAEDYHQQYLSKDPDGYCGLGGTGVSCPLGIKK

Beta-2 adrenergic receptor, sequence (P07550 whole entry): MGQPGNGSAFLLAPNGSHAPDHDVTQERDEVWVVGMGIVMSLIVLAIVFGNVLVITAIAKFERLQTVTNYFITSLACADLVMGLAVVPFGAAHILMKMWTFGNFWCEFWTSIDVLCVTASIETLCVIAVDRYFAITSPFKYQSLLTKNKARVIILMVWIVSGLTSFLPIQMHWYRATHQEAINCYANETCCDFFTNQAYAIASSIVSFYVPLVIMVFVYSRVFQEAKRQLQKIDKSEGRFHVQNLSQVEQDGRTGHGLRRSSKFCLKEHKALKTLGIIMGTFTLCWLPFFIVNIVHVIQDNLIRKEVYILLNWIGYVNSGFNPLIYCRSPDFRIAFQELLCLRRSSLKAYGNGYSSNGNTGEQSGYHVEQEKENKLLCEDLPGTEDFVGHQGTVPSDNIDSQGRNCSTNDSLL
Apoptotic protease-activating factor 1, sequence (O14727 whole entry): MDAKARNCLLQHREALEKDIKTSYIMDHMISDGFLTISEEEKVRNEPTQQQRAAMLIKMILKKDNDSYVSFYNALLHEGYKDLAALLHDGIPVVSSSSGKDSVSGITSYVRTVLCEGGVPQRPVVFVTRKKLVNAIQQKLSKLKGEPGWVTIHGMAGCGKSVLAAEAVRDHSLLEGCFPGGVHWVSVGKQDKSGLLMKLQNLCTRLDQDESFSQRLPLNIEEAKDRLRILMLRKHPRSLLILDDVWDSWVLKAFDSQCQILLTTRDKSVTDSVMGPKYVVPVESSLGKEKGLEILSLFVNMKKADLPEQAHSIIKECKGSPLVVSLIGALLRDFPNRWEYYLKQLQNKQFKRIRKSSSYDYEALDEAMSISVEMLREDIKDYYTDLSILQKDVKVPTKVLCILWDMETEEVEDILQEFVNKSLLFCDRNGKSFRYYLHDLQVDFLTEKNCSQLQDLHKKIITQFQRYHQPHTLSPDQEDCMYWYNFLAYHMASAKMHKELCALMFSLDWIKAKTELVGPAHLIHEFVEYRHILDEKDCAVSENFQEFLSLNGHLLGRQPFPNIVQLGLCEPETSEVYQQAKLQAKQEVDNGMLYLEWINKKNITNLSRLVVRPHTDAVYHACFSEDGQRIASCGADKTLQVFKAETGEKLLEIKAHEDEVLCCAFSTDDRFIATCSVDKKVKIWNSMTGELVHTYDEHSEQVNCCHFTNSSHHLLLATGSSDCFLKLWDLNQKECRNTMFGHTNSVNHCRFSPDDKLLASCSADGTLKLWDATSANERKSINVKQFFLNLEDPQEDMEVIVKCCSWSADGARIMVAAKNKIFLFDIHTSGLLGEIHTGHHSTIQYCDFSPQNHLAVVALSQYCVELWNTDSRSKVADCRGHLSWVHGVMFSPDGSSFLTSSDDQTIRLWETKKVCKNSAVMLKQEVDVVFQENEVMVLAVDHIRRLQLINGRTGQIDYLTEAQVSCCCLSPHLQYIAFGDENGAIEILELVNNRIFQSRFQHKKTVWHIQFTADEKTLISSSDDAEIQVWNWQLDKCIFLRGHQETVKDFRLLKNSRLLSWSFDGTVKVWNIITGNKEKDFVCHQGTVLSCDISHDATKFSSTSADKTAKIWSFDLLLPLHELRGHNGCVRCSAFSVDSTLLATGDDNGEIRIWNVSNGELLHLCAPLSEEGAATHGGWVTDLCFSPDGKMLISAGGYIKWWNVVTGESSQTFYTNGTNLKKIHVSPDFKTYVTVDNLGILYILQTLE

SMILES: Cn1c(CNc2nc(-c3ccccc3)cs2)nnc1SCC(=O)N1CCc2ccccc21
- EC50 [1]: 0.666 µM (active)

SMILES: O=C(NC1=NCCS1)c1cccc(Br)c1
- IC50 [2]: > 67.5 µM (inactive)
- IC50 [3]: > 67.5 µM (inactive)

SMILES: C(=N\Nc1nc2ccccc2[nH]1)/c1ccc2c(c1)OCO2
- IC50 [2]: > 67.5 µM (inactive)
- IC50 [3]: > 67.5 µM (inactive)

SMILES: Cc1[nH]c2ccccc2c1C(C#N)(C#N)C1C(=O)c2ccccc2C1=O
- EC50 [4]: 8.49 µM (active)
- EC50 [5]: > 150 µM (not active)
- EC50 [6]: > 150 µM (not active)
- AC50 [7]: > 120 µM (inactive)
- CC50 [8]: > 40 µM (active)
- IC50 [9]: > 100 µM (inactive)
- EC50 [10]: 0.297 µM (active)
- IC50 [11]: 12.1 µM (inactive)
